Measured values: US20250368626A1, “SOLID FORMS OF 2-(3,5-DICHLORO-4-((5-ISOPROPYL-6-OXO-1,6-DIHYDROPYRIDAZIN-3-YL)OXY)PHENYL)-3,5-DIOXO-2,3,4,5-TETRAHYDRO-1,2,4-TRIAZINE-6-CARBONITRILE” (Madrigal Pharmaceuticals, Inc., priority 2018, published 2025)
Converted amounts (≈) assume the structure as drawn. One block for each compound: values may come before it.

Columns and labels:
[1] = Kinetic and thermodynamic solubility of Compound A and the glutaric acid co-crystal in FaSSGF, FaSSIF and water at 37° C. (HPLC); format: physicochemical; details: for solubility at 1 h / solubility at 24 h / Solubility: 37° C.; for pH: pH of the slurry; for XRPD after slurry: solid form after slurry
Experimental: The kinetic and thermodynamic solubility of the glutaric acid co-crystal was assessed in simulated fasted state gastric and intestinal fluids (FaSSGF and FaSSIF) and also in water. The pH of the system was also measured. The solubility assessment was also performed on Compound A for comparison. […] Samples were collected after 24 hours for equilibrium solubility measurement.

[2] = Solubility of salts of Compound A in FaSSGF, FaSSIF and water at 37° C.; details: for Solubility: 37° C.
[3] = Stability of the co-crystal at 75% RH at 40° C. for 1 week; format: physicochemical
[4] = Dynamic vapor sorption (DVS) of the glutaric acid co-crystal; format: physicochemical
Excerpt: FIG. 83 is a dynamic vapor sorption (DVS) isotherm of the glutaric acid co-crystal of Compound A showing a total mass gain of 1.12% by weight between 2% and 95% relative humidity environments.
No difference in the XRPD pattern was seen after the DVS analysis, the XRPD patterns before and after DVS analysis are shown in FIG. 84.

[5] = Physical form stability of scaled-up salts at 75% relative humidity for 1 week; format: physicochemical
[6] = solid after solubility test in FaSSGF, by XRPD
[7] = Water, value of the 100X dil sample

solubility at 1 h ([1]; fassgf or other biorelevant, thermodynamic from solid, FaSSGF, Kinetic-1 hour): 1.1 µg/mL (≈ 2.53 µM)
solubility at 24 h ([1]; pH 1.67, fassgf or other biorelevant, thermodynamic from solid, FaSSGF, Equilibrium-24 hours): 1.1 µg/mL (≈ 2.53 µM)
solubility at 24 h ([1]; pH 6.44, thermodynamic from solid, FaSSIF, Equilibrium-24 hours): 552 µg/mL (≈ 1270 µM)
solubility at 24 h ([1]; pH 6.57, thermodynamic from solid, Water, Equilibrium-24 hours): 193 µg/mL (≈ 443 µM)
pH ([1]; FaSSGF, Equilibrium-24 hours): 1.67
pH ([1]; FaSSIF, Equilibrium-24 hours): 6.44
pH ([1]; Water, Equilibrium-24 hours): 6.57
XRPD after slurry ([1]; FaSSGF, Equilibrium-24 hours): Form-A
XRPD after slurry ([1]; FaSSIF, Equilibrium-24 hours): Form-A
XRPD after slurry ([1]; Water, Equilibrium-24 hours): Dihydrate
solubility at 1 h ([1]; thermodynamic from solid, FaSSIF, Kinetic-1 hour): 490 µg/mL (≈ 1120 µM)
solubility at 1 h ([1]; thermodynamic from solid, Water, Kinetic-1 hour): 25.9 µg/mL (≈ 59.5 µM)
Compound: CC(C)c1cc(Oc2c(Cl)cc(-n3nc(C#N)c(=O)[nH]c3=O)cc2Cl)n[nH]c1=O [Form A, 2-(3,5-dichloro-4-((5-isopropyl-6-oxo-1,6-dihydropyridazin-3-yl)oxy)phenyl)-3,5-dioxo-2,3,4,5-tetrahydro-1,2,4-triazine-6-carbonitrile]

Solubility ([2]; FaSSGF): 100 µg/mL
Solubility ([2]; FaSSIF): 4500 µg/mL
Solubility ([2]; Water): 200 µg/mL
Compound: CC(C)c1cc(Oc2c(Cl)cc(-n3nc(C#N)c(=O)[nH]c3=O)cc2Cl)n[nH]c1=O [Free form Anhydrous]

Solubility ([2]; FaSSGF): 6.7 µg/mL
Solubility ([2]; FaSSIF): 2900 µg/mL
Solubility ([2]; Water): 100 µg/mL
Compound: CC(C)c1cc(Oc2c(Cl)cc(-n3nc(C#N)c(=O)[nH]c3=O)cc2Cl)n[nH]c1=O.O.O [Free form dihydrate]

stability [3]: stable
hygroscopicity ([4]; DVS, 2% to 95% RH): not hygroscopic
mass gain (DVS) ([4]; between 2% and 95% relative humidity, by weight): 1.12%
XRPD pattern after DVS analysis compared with the starting material ([4]; listed as co-crystal): No difference
XRPD pattern after DVS analysis compared with the starting material ([4]; listed as glutaric acid co-crystal): no change was observed
Solubility ([1]; FaSSGF, Equilibrium-24 hours): 1 µg/mL
Solubility ([1]; FaSSGF, Kinetic-1 hour): 0.1 µg/mL
Solubility ([1]; FaSSIF, Equilibrium-24 hours): 478.1 µg/mL
Solubility ([1]; FaSSIF, Kinetic-1 hour): 239.9 µg/mL
Solubility ([1]; Water, Equilibrium-24 hours): 1.6 µg/mL
Solubility ([1]; Water, Kinetic-1 hour): 0.3 µg/mL
pH ([1]; FaSSGF, Equilibrium-24 hours): 1.66
pH ([1]; FaSSIF, Equilibrium-24 hours): 6.31
pH ([1]; Water, Equilibrium-24 hours): 4.27
XRPD after slurry ([1]; FaSSGF, Equilibrium-24 hours): Dihydrate
XRPD after slurry ([1]; FaSSIF, Equilibrium-24 hours): Dihydrate
XRPD after slurry ([1]; Water, Equilibrium-24 hours): Dihydrate
Compound: CC(C)c1cc(Oc2c(Cl)cc(-n3nc(C#N)c(=O)[nH]c3=O)cc2Cl)n[nH]c1=O.O=C(O)CCCC(=O)O [Glutaric acid co-crystal]

Solubility ([2]; FaSSGF): 2.5 µg/mL
Solubility ([2]; FaSSIF): 800 µg/mL
Solubility ([2]; Water): 320 µg/mL
Resulting form ([2]; after solubility test in Water): Dihydrate
Resulting form [2, 6]: Dihydrate
physical form stability compared with starting solids [5]: changes were observed
Compound: CC(C)c1cc(Oc2c(Cl)cc(-n3nc(C#N)c(=O)[n-]c3=O)cc2Cl)n[nH]c1=O.CC(C)c1cc(Oc2c(Cl)cc(-n3nc(C#N)c(=O)[n-]c3=O)cc2Cl)n[nH]c1=O.[Ca+2] [Hemi Ca]

Solubility ([2]; FaSSGF): 1.2 µg/mL
Solubility ([2]; FaSSIF): 2720 µg/mL
Solubility ([2]; Water): > 21300 µg/mL
Solubility [2, 7]: 210 µg/mL
Resulting form ([2]; after solubility test in Water): Clear solution
Resulting form [2, 6]: Dihydrate
Compound: CC(C)c1cc(Oc2c(Cl)cc(-n3nc(C#N)c(=O)[n-]c3=O)cc2Cl)n[nH]c1=O.[K+] [K]

Solubility ([2]; FaSSGF): 0.8 µg/mL
Solubility ([2]; FaSSIF): 2500 µg/mL
Solubility ([2]; Water): > 25000 µg/mL
Solubility [2, 7]: 250 µg/mL
Resulting form ([2]; after solubility test in Water): Clear solution
Resulting form [2, 6]: Dihydrate
Compound: CC(C)c1cc(Oc2c(Cl)cc(-n3nc(C#N)c(=O)[n-]c3=O)cc2Cl)n[nH]c1=O.[Na+] [Na]
